Experimental findings from PubChem BioAssay AID330 (DTP/NCI, 2004) are described below.

For the test, the system named is P388 leukemia ip, CD2F1 mice, survival T/C. As to the kind of experiment: NCI In Vivo Anticancer Drug Screen. Data for tumor model P388 Leukemia (intraperitoneal) in CD2F1 (CDF1) mice. The conditions noted are these: endpoint: median survival time, higher = longer survival. Summed up: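 Mice carrying the transplanted tumor received test compound or vehicle. Survival was recorded in each group, and the value is the treated-group measurement divided by that of the vehicle-treated control group.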

Setting [1] is: dose: 50.0 mg/kg/injection, schedule: Q01DX005 (ip), vehicle: Klucel (hydroxypropylcellulose) (HPC).
The mark [2] stands for this setting: dose: 100.0 mg/kg/injection, schedule: Q01DX005 (ip), vehicle: Klucel (hydroxypropylcellulose) (HPC).
Setting [3] is: dose: 50.0 mg/kg/injection, schedule: Q01DX009 (ip), vehicle: saline.
Setting [4] is: dose: 100.0 mg/kg/injection, schedule: Q01DX009 (ip), vehicle: saline.
[5] abbreviates: dose: 200.0 mg/kg/injection, schedule: Q01DX009 (ip), vehicle: saline.
Setting [6] is: dose: 100.0 mg/kg/injection, schedule: Q01DX001 (ip), vehicle: saline with Tween-80.
[7] abbreviates: dose: 200.0 mg/kg/injection, schedule: Q01DX001 (ip), vehicle: saline with Tween-80.
Setting [8] is: dose: 12.5 mg/kg/injection, schedule: Q01DX009 (ip), vehicle: saline with Tween-80.
Where [9] appears, read: dose: 25.0 mg/kg/injection, schedule: Q01DX009 (ip), vehicle: saline with Tween-80.
[10] abbreviates: dose: 50.0 mg/kg/injection, schedule: Q01DX009 (ip), vehicle: saline with Tween-80.
Where [11] appears, read: dose: 6.25 mg/kg/injection, schedule: Q01DX009 (ip), vehicle: saline with Tween-80.

Values joined by “and” are separate entries in the source; they are usually repeats but may differ in a detail not shown here. Equal entries are not always repeated. Toxic doses and inconclusive results are not listed.

For `C[C@]12CC[C@H](O)C[C@@H]1CC[C@@H]1[C@@H]2CC[C@]2(C)c3nc4ccccc4c(C(=O)O)c3C[C@@H]12`, the T/C (dose: 12.5 mg/kg/injection, schedule: Q01DX005 (ip), vehicle: saline with Tween-80) was 101 % of control; the T/C (dose: 25.0 mg/kg/injection, schedule: Q01DX005 (ip), vehicle: saline with Tween-80) was 100 % of control; the T/C (dose: 50.0 mg/kg/injection, schedule: Q01DX005 (ip), vehicle: saline with Tween-80) was 86 % of control and 94 % of control; the T/C (dose: 200.0 mg/kg/injection, schedule: Q01DX005 (ip), vehicle: saline with Tween-80) was 93 % of control.
Regarding `CCCCCC(=O)NC1C(O)OC(CO)C(O)C1O` (stereo not drawn), the T/C runs as follows: under setting [1], 106 % of control; under setting [2], 97 % of control.
`CC(N)C(O)c1ccc(O)cc1` (stereo not drawn): the T/C runs as follows: under setting [3], 102 % of control and 108 % of control; under setting [4], 101 % of control; under setting [5], 101 % of control and 108 % of control; (dose: 400.0 mg/kg/injection, schedule: Q01DX009 (ip), vehicle: saline) 87 % of control and 89 % of control.
With `ONc1ccc2c(c1)C1C(C3C2C2(Cl)C(Cl)=C(Cl)C3(Cl)C2(Cl)Cl)C2(Cl)C(Cl)=C(Cl)C1(Cl)C2(Cl)Cl` (stereo not drawn), the T/C was 96 % of control under setting [3], 99 % of control under setting [4] and 92 % of control under setting [5].
In the case of `O=c1[nH]c(=O)c2ncsc2[nH]1`, the T/C runs as follows: (dose: 25.0 mg/kg/injection, schedule: Q01DX001 (ip), vehicle: saline with Tween-80) 100 % of control; (dose: 50.0 mg/kg/injection, schedule: Q01DX001 (ip), vehicle: saline with Tween-80) 100 % of control and 104 % of control; under setting [6], 100 % of control and 113 % of control; under setting [7], 118 % of control.
For the compound `CCCCCCCCCCN1COC2Cc3ccccc3CC21` (stereo not drawn), the T/C was 99 % of control (dose: 50.0 mg/kg/injection, schedule: Q01DX005 (ip), vehicle: saline); 100 % of control (dose: 100.0 mg/kg/injection, schedule: Q01DX005 (ip), vehicle: saline); 100 % of control (dose: 200.0 mg/kg/injection, schedule: Q01DX005 (ip), vehicle: saline).
As for `CC1=Nc2cccnc2N(C)N1C`, the T/C was 94 % of control (dose: 15.0 mg/kg/injection, schedule: Q01DX005 (ip), vehicle: saline); 98 % of control (dose: 30.0 mg/kg/injection, schedule: Q01DX005 (ip), vehicle: saline); 98 % of control and 106 % of control (dose: 60.0 mg/kg/injection, schedule: Q01DX005 (ip), vehicle: saline).
For the compound `N=c1oc(-c2ccccc2)cc2ccccc12`, the T/C (dose: 6.25 mg/kg/injection, schedule: Q01DX005 (ip), vehicle: Klucel (hydroxypropylcellulose) (HPC)) is 104 % of control; the T/C (dose: 12.5 mg/kg/injection, schedule: Q01DX005 (ip), vehicle: Klucel (hydroxypropylcellulose) (HPC)) was 100 % of control; the T/C (dose: 25.0 mg/kg/injection, schedule: Q01DX005 (ip), vehicle: Klucel (hydroxypropylcellulose) (HPC)) is 104 % of control.
Turning to `C[N+](C)(C)c1ccc(/C=C/[N+](=O)[O-])cc1`, the T/C under setting [8] is 95 % of control and the T/C under setting [9] is 102 % of control.
On to `CC(=O)OCCOCNC(=S)N/N=C/c1ccccn1`, for which the T/C (dose: 60.0 mg/kg/injection, schedule: Q01DX005 (ip), vehicle: saline with Tween-80) is 115 % of control.
On to `CS(=O)(=O)CCS(C)(=O)=O`, for which the T/C by setting is: under setting [10], 102 % of control; (dose: 200.0 mg/kg/injection, schedule: Q01DX009 (ip), vehicle: saline with Tween-80) 89 % of control.
Regarding `c1ccc(N2CCSCC2)cc1`, the T/C was 104 % of control (dose: 50.0 mg/kg/injection, schedule: Q04DX003 (ip), vehicle: saline); 150 % of control (dose: 66.0 mg/kg/injection, schedule: Q04DX003 (ip), vehicle: saline with Tween-80); 204 % of control (dose: 100.0 mg/kg/injection, schedule: Q04DX003 (ip), vehicle: saline with Tween-80); 190 % of control (dose: 150.0 mg/kg/injection, schedule: Q04DX003 (ip), vehicle: saline with Tween-80); 109 % of control (dose: 200.0 mg/kg/injection, schedule: Q04DX003 (ip), vehicle: saline).
In the case of `COc1cc(OCc2ccccc2)c(CC(=O)O)c([N+](=O)[O-])c1`, the T/C is, setting by setting: under setting [6], 100 % of control; under setting [7], 100 % of control; (dose: 400.0 mg/kg/injection, schedule: Q01DX001 (ip), vehicle: saline with Tween-80) 90 % of control.
For `COc1c(OCC(O)CN2CCCCC2)c2c(C)coc2c2ccoc12` (stereo not drawn), the T/C runs as follows: under setting [1], 100 % of control; under setting [2], 96 % of control.
Regarding `O=C(NCCN(C(=O)C12CC3CC(CC(C3)C1)C2)c1ccc(F)cc1)C12CC3CC(CC(C3)C1)C2`, the T/C reads like this: under setting [11], 105 % of control; under setting [8], 92 % of control; under setting [9], 100 % of control.
`Cn1c(=O)c2c(nnc(-c3ccc(Cl)c(Cl)c3)[n+]2[O-])n(C)c1=O`: under “dose: 25.0 mg/kg/injection, schedule: Q01DX001 (ip), vehicle: Klucel (hydroxypropylcellulose) (HPC)”, the T/C is 103 % of control.
For the compound `CCn1c2ccccc2c2cc(N=Nc3cc[n+]([O-])c4c(O)cccc34)ccc21`, the T/C by setting is: (dose: 5.0 mg/kg/injection, schedule: Q01DX009 (ip), vehicle: saline with Tween-80) 110 % of control; (dose: 10.0 mg/kg/injection, schedule: Q01DX009 (ip), vehicle: saline with Tween-80) 102 % of control; (dose: 20.0 mg/kg/injection, schedule: Q01DX009 (ip), vehicle: saline with Tween-80) 106 % of control; (dose: 40.0 mg/kg/injection, schedule: Q01DX009 (ip), vehicle: saline with Tween-80) 107 % of control; under setting [10], 86 % of control.
In the case of `COc1cccc2c1C(=O)c1c(O)c3c(c(O)c1C2=O)C[C@@](O)(C(=O)COC(=O)c1cccnc1)C[C@@H]3OC1CC(N)C(O)C(C)O1` (stereo partly drawn), the T/C by setting is: (dose: 0.25 mg/kg/injection, schedule: Q04DX003 (ip), vehicle: saline) 114 % of control; (dose: 0.5 mg/kg/injection, schedule: Q01DX009 (ip), vehicle: saline with Tween-80) 118 % of control; (dose: 0.5 mg/kg/injection, schedule: Q01DX009 (ip), vehicle: water) 163 % of control; (dose: 0.5 mg/kg/injection, schedule: Q04DX003 (ip), vehicle: saline) 113 % of control; (dose: 0.5 mg/kg/injection, schedule: Q04DX003 (ip), vehicle: water) 109 % of control; (dose: 1.0 mg/kg/injection, schedule: Q01DX009 (ip), vehicle: saline with Tween-80) 122 % of control. Further, the T/C is 167 % of control (dose: 1.0 mg/kg/injection, schedule: Q01DX009 (ip), vehicle: water); 116 % of control and 122 % of control (dose: 1.0 mg/kg/injection, schedule: Q04DX003 (ip), vehicle: saline); 119 % of control (dose: 1.0 mg/kg/injection, schedule: Q04DX003 (ip), vehicle: water); 209 % of control (dose: 1.32 mg/kg/injection, schedule: Q01DX009 (ip), vehicle: saline sonified); 209 % of control (dose: 2.0 mg/kg/injection, schedule: Q01DX009 (ip), vehicle: saline sonified); 229 % of control (dose: 2.0 mg/kg/injection, schedule: Q01DX009 (ip), vehicle: water). The T/C by setting is: (dose: 2.0 mg/kg/injection, schedule: Q04DX003 (ip), vehicle: saline) 108 % of control; (dose: 2.0 mg/kg/injection, schedule: Q04DX003 (ip), vehicle: water) 119 % of control; (dose: 3.0 mg/kg/injection, schedule: Q01DX009 (ip), vehicle: saline sonified) 104 % of control; (dose: 4.0 mg/kg/injection, schedule: Q01DX009 (ip), vehicle: water) 102 % of control; (dose: 4.0 mg/kg/injection, schedule: Q04DX003 (ip), vehicle: saline) 113 % of control; (dose: 4.0 mg/kg/injection, schedule: Q04DX003 (ip), vehicle: water) 119 % of control. In addition, the T/C is 118 % of control (dose: 8.0 mg/kg/injection, schedule: Q04DX003 (ip), vehicle: saline); 172 % of control (dose: 8.0 mg/kg/injection, schedule: Q04DX003 (ip), vehicle: water); 166 % of control (dose: 16.0 mg/kg/injection, schedule: Q04DX003 (ip), vehicle: water); 95 % of control (dose: 64.0 mg/kg/injection, schedule: Q04DX003 (ip), vehicle: saline).
Take `C/C(=N\NC(=S)N(C)C)c1ccccn1`: the T/C under setting [11] is 100 % of control.
